The results in this text go back to patent US20190338290A1, “TREATMENT OF SARCOMA” (MEMORIAL SLOAN KETTERING CANCER CENTER, priority 2017, published 2019).

The series concerns SS18-SSX / KDM2B co-localization. The experiment in a line: Proximity ligation assay (PLA) of SS18-SSX and KDM2B. Format: cell-based, human. The note with it: HS-SY-II cells, SS18-SSX knockdown. As to the method: Indicated synovial sarcoma cell lines were seeded at 3×10^4 cells/well in culture treated 8-well chamber slides and treated as previously described (Laporte et al., 2016). Primary antibodies for PLA were used at 1/1000 dilution: SS18 (Santa-Cruz Biotechnologies, sc-28698), KDM2B (Abnova, H00084678-M09), HA (Santa-Cruz Biotechnologies, sc-805). Proximity ligation was performed utilizing the Duolink® In Situ Red Starter Kit Mouse/Rabbit (Sigma-Aldrich, DUP92101-1KT) according to the manufacturer's protocol. Fluorescence was detected using a Zeiss Axioplan2 microscope at 40×. Images were quantified in triplicate using ImageJ software (NIH) as foci per nucleus, defined as the number of interaction points counted per nucleus. For PLA analysis upon SS18-SSX knockdown, duplex oligo (sense, […]; antisense, […]) SS18-SSX siRNAs were designed to target the SSX portion of SS18-SSX using the Integrated. DNA Technologies RNA interference (RNAi) design tool, and synthesized by Integrated DNA Technologies (IDT) as previously described (Lubieniecka et al., 2008). HS-SY-II cells were seeded in 6-well plates. At 60% confluence, cells were transfected with 50 pmol siSS18-SSX and 9 μL Lipofectamine RNAiMAX transfection reagent (Invitrogen) in Opti-MEM serum free media (Life Technologies). […]

Regarding “SSX targeting siRNA: duplex oligo siRNA (sense CAAGAAGCCAGCAGAGGAATT; antisense UUCCUCUGCUGGCUUCUUGTT) designed to target the SSX portion of SS18-SSX (chemistry not given here)”, the “PLA signal (SS18 and KDM2B antibodies)” value is given as “abolished”.
